Laboratory results taken from patent US20160311788A1, “Antifouling Compounds And Use Thereof” (National University of Singapore, priority 2008, published 2016).

What was measured:
[1] = system: marine bacteria strain S1; assay: disc inhibition assay, strain S1; type: cell-based, Rhodovulum iodosum
Procedure, shortened: (§1)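 Zone-of-inhibition diameters (caliper, n=2 averaged) were recorded after overnight dark incubation at 35° C. Test discs of 6 mm bore 50 μg compound delivered in DMSO, placed on lawns of the marine strain grown in marine broth and spread on Marine Agar; solvent discs served as controls.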

[2] = system: marine bacteria strain S3; assay: disc inhibition assay, strain S3; type: cell-based, Erythrobacter aquimaris
Procedure, shortened: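 Antibacterial susceptibility was measured by agar disc diffusion. Compounds dissolved in DMSO were applied to 6 mm sterile discs and laid on Marine Agar lawns of a Singapore coastal marine bacterium cultured in marine broth. After overnight dark incubation at 35° C, clearing zone diameters were measured with Vernier calipers, and the two replicates were averaged.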

[3] = system: marine bacteria strain S4; assay: disc inhibition assay, strain S4; type: cell-based, Bacillus algicola; conditions: Guptibacillus algicola, S4, 24 h
Procedure, shortened: as §1

[4] = system: marine bacteria strain S9; assay: disc inhibition assay, strain S9; type: cell-based, Bacillus algicola; conditions: Guptibacillus algicola, S9, 24 h
Procedure, shortened: as §1

[5] = system: marine bacteria strain S10; assay: disc inhibition assay, strain S10; type: cell-based, Halobacillus trueperi; conditions: Halobacillus trueperi, S10, 24 h
Procedure, shortened: as §1

[6] = system: marine bacteria strain S14; assay: disc inhibition assay, strain S14; type: cell-based, Vibrio probioticus
[7] = system: marine bacteria strain S16; assay: disc inhibition assay, strain S16; type: cell-based, Pseudoalteromonas piscicida; conditions: Pseudoalteromonas piscicida, S16, 24 h
Procedure, shortened: as §1

[8] = system: marine bacteria strain S17; assay: disc inhibition assay, strain S17; type: cell-based, Gordonia terrae; conditions: Gordonia terrae, S17, 24 h
Procedure, shortened: as §1

[9] = system: marine bacteria strain S18; assay: disc inhibition assay, strain S18; type: cell-based, Microbacterium esteraromaticum; conditions: Microbacterium esteraromaticum, S18, 24 h
[10] = system: marine bacteria strain S27; assay: disc inhibition assay, strain S27; type: cell-based, Tenacibaculum lutimaris
Procedure, shortened: as §1

[11] = system: marine bacteria strain S28; assay: disc inhibition assay, strain S28; type: cell-based, Arthrobacter protophormial; conditions: Arthrobacter, S28, 24 h
Procedure, shortened: as §1

[12] = system: marine bacteria strain S29; assay: disc inhibition assay, strain S29; type: cell-based, Bacillus hwajinpoensis; conditions: Guptibacillus hwajinpoensis, S29, 24 h
Procedure, shortened: as §1

[13] = system: marine bacteria strain S30; assay: disc inhibition assay, strain S30; type: cell-based, Bacillus borophilicus; conditions: Bacillus, S30, 24 h
Procedure, shortened: as §1

[14] = system: Escherichia coli (Strain K12; ATCC 15222); assay: disc inhibition assay, REF 1; type: cell-based
Description: (§2) 13 strains of marine bacteria were isolated from fouling communities located in the coastal waters around Singapore. These were characterized in earlier studies and reported in Teo et al. (U.S. patent application Ser. No. 11/265,833) and Choong et al (in prep). In addition, four reference bacterial strains were added tested: Escherichia coli (Strain K12, ATCC 15222), E. coli (strain DH5a), Pseudomonas aeruginosa (strain LMG 12228; ATCC 15692) and P. putida (strain KT2440; ATCC 47054). All the bacteria were also tested against five antibiotics: ampicillin (AMP), tetracycline (TETR), erythromycin (ERY), chloramphenicol (CHL) and streptomycin (STREP).
(§3) Disks comprising the compounds to be tested were prepared as follows. The antibacterial assay, the pure compounds were made up to a concentration of 2 mgml^−1 in DMSO. 25 μl of the stock was pipetted onto each 6 mm sterile disc (Macherey-Nagel #484000) to obtain 50 μg of compound per disc. Equivalent volume of DMSO was used inoculated for the control.
(§4) For all disk inhibition assays, bacterial cultures were grown in marine broth (Pronadisa #1217.00). Sterile swabs dipped into the cultures were used to inoculate Marine Agar plates with a bacterial lawn by smearing the culture over the surface. After inoculating the plates, discs with antibiotics, pharmaceuticals or control blanks were placed on each plate. Each concentration of antibiotic or pharmaceutical was tested with two replicates. After the disks were placed on the agar surface, plates were incubated overnight in the dark at 35° C. After incubation, plates were examined for zones of inhibition or clearing around control and treated disks. The diameter of any zone of clearing or inhibition was measured using Vernier calipers. There were two replicates per treatment, and the average was taken. There was no zone of inhibition around the control blanks in all the assays.

[15] = system: Escherichia coli (Strain DH5a); assay: disc inhibition assay, REF 2; type: cell-based
Description: as §2, §3, §4

[16] = system: Pseudomonas aeruginosa (strain LMG 12228; ATCC 15692); assay: disc inhibition assay, REF 3; type: cell-based
Description: as §2, §3, §4

[17] = system: Pseudomonas putida (Strain KT2440; BCRC 10459); assay: disc inhibition assay, REF 4; type: cell-based
Description: as §2, §3, §4

SMILES: CC[C@H]1OC(=O)[C@H](C)[C@@H](O[C@H]2C[C@@](C)(OC)[C@@H](O)[C@H](C)O2)[C@H](C)[C@@H](O[C@@H]2O[C@H](C)C[C@H](N(C)C)[C@H]2O)[C@](C)(O)C[C@@H](C)C(=O)[C@H](C)[C@@H](O)[C@]1(C)O [ERY, Erythromycin, reference compound]
- zone of inhibition ([1]; strain 1, 5 ug): −
- zone of inhibition ([1]; strain 1, 15 ug): −
- zone of inhibition at 5 µg/disc ([2]; Qipengyuania aquimaris, S3, 24 h, strain 3, 5 ug): 5 to 10 mm
- zone of inhibition at 15 µg/disc ([2]; Qipengyuania aquimaris, S3, 24 h, strain 3, 15 ug): 5 to 10 mm
- zone of inhibition at 5 µg/disc ([3]; strain 4, 5 ug): > 10 mm
- zone of inhibition at 15 µg/disc ([3]; strain 4, 15 ug): > 10 mm
- zone of inhibition at 5 µg/disc ([4]; strain 9, 5 ug): > 10 mm
- zone of inhibition at 15 µg/disc ([4]; strain 9, 15 ug): > 10 mm
- zone of inhibition at 5 µg/disc ([5]; strain 10, 5 ug): 5 to 10 mm
- zone of inhibition at 15 µg/disc ([5]; strain 10, 15 ug): > 10 mm
- zone of inhibition at 15 µg/disc ([6]; Vibrio, S14, 24 h): 2 to 5 mm
- zone of inhibition ([6]; strain 14, 5 ug): −
- zone of inhibition at 5 µg/disc ([7]; strain 16, 5 ug): 2 to 5 mm
- zone of inhibition at 15 µg/disc ([7]; strain 16, 15 ug): 2 to 5 mm
- zone of inhibition at 5 µg/disc ([8]; strain 17, 5 ug): > 10 mm
- zone of inhibition at 15 µg/disc ([8]; strain 17, 15 ug): > 10 mm
- zone of inhibition at 5 µg/disc ([9]; strain 18, 5 ug): 2 to 5 mm
- zone of inhibition at 15 µg/disc ([9]; strain 18, 15 ug): 5 to 10 mm
- zone of inhibition at 5 µg/disc ([10]; Tenacibaculum lutimaris, S27, 24 h, strain 27, 5 ug): 5 to 10 mm
- zone of inhibition at 15 µg/disc ([10]; Tenacibaculum lutimaris, S27, 24 h, strain 27, 15 ug): 5 to 10 mm
- zone of inhibition at 5 µg/disc ([11]; strain 28, 5 ug): > 10 mm
- zone of inhibition at 15 µg/disc ([11]; strain 28, 15 ug): > 10 mm
- zone of inhibition at 5 µg/disc ([12]; strain 29, 5 ug): > 10 mm
- zone of inhibition at 15 µg/disc ([12]; strain 29, 15 ug): > 10 mm
- zone of inhibition at 5 µg/disc ([13]; strain 30, 5 ug): 5 to 10 mm
- zone of inhibition at 15 µg/disc ([13]; strain 30, 15 ug): 5 to 10 mm
- zone of inhibition ([14]; REF 1, 5 ug): −
- zone of inhibition ([14]; REF 1, 15 ug): + (2-5 mm zone of inhibition around each disk was observed.)
- zone of inhibition ([15]; REF 2, 5 ug): −
- zone of inhibition ([15]; REF 2, 15 ug): + (2-5 mm zone of inhibition around each disk was observed.)
- zone of inhibition ([16]; REF 3, 5 ug): + (2-5 mm zone of inhibition around each disk was observed.)
- zone of inhibition ([16]; REF 3, 15 ug): + (2-5 mm zone of inhibition around each disk was observed.)
- zone of inhibition ([17]; REF 4, 5 ug): + (2-5 mm zone of inhibition around each disk was observed.)
- zone of inhibition ([17]; REF 4, 15 ug): + (2-5 mm zone of inhibition around each disk was observed.)

SMILES: [H]/N=C(/N)N[C@H]1[C@H](O)[C@@H](O)[C@H](O[C@@H]2O[C@@H](C)[C@](O)(C=O)[C@H]2O[C@@H]2O[C@@H](CO)[C@H](O)[C@@H](O)[C@@H]2NC)[C@@H](N/C(N)=N\[H])[C@@H]1O [STREP, Streptomycin, reference compound]
- zone of inhibition at 10 µg/disc ([1]; Rhodovulum iodosum, S1, strain 1, 10 ug): 5 to 10 mm
- zone of inhibition at 25 µg/disc ([1]; Rhodovulum iodosum, S1, strain 1, 25 ug): > 10 mm
- zone of inhibition ([2]; strain 3, 10 ug): −
- zone of inhibition ([2]; strain 3, 25 ug): −
- zone of inhibition at 10 µg/disc ([3]; strain 4, 10 ug): 2 to 5 mm
- zone of inhibition at 25 µg/disc ([3]; strain 4, 25 ug): 5 to 10 mm
- zone of inhibition at 10 µg/disc ([4]; strain 9, 10 ug): 2 to 5 mm
- zone of inhibition at 25 µg/disc ([4]; strain 9, 25 ug): 2 to 5 mm
- zone of inhibition at 10 µg/disc ([5]; strain 10, 10 ug): 2 to 5 mm
- zone of inhibition at 25 µg/disc ([5]; strain 10, 25 ug): 2 to 5 mm
- zone of inhibition at 10 µg/disc ([6]; Vibrio, S14, 24 h): 2 to 5 mm
- zone of inhibition at 25 µg/disc ([6]; Vibrio, S14, 24 h): 2 to 5 mm
- zone of inhibition at 10 µg/disc ([7]; strain 16, 10 ug): 2 to 5 mm
- zone of inhibition at 25 µg/disc ([7]; strain 16, 25 ug): 5 to 10 mm
- zone of inhibition at 10 µg/disc ([8]; strain 17, 10 ug): 2 to 5 mm
- zone of inhibition at 25 µg/disc ([8]; strain 17, 25 ug): 5 to 10 mm
- zone of inhibition at 10 µg/disc ([9]; strain 18, 10 ug): 2 to 5 mm
- zone of inhibition at 25 µg/disc ([9]; strain 18, 25 ug): 5 to 10 mm
- zone of inhibition ([10]; strain 27, 10 ug): −
- zone of inhibition ([10]; strain 27, 25 ug): −
- zone of inhibition at 10 µg/disc ([11]; strain 28, 10 ug): 2 to 5 mm
- zone of inhibition at 25 µg/disc ([11]; strain 28, 25 ug): 5 to 10 mm
- zone of inhibition at 10 µg/disc ([12]; strain 29, 10 ug): 2 to 5 mm
- zone of inhibition at 25 µg/disc ([12]; strain 29, 25 ug): 5 to 10 mm
- zone of inhibition at 10 µg/disc ([13]; strain 30, 10 ug): 2 to 5 mm
- zone of inhibition at 25 µg/disc ([13]; strain 30, 25 ug): 5 to 10 mm
- zone of inhibition ([14]; REF 1, 10 ug): + (2-5 mm zone of inhibition around each disk was observed.)
- zone of inhibition ([14]; REF 1, 25 ug): ++ (5-10 mm zone was observed.)
- zone of inhibition ([15]; REF 2, 10 ug): −
- zone of inhibition ([15]; REF 2, 25 ug): −
- zone of inhibition ([16]; REF 3, 10 ug): + (2-5 mm zone of inhibition around each disk was observed.)
- zone of inhibition ([16]; REF 3, 25 ug): ++ (5-10 mm zone was observed.)
- zone of inhibition ([17]; REF 4, 10 ug): + (2-5 mm zone of inhibition around each disk was observed.)
- zone of inhibition ([17]; REF 4, 25 ug): ++ (5-10 mm zone was observed.)
